In patent publication US20240009175A9, “TETRAZOLE DERIVATIVES” (Merck Patent GmbH, priority 2020, published 2024):
pIC50: −log10 of the molar value.

How the values were obtained:
human rec ACSS2 = human rec ACSS2 (Homo sapiens (Human), UniProt Q9NR19); assay: Biochemical activity ACSS2 assay (AMP-Glo); conditions: human recombinant ACSS2, AMP-Glo, 180 min at 37° C.
Excerpt: Biochemical Activity ACSS2 Assay (IC50 ACSS2 Biochemical)
The biochemical activity assay for ACSS2 is based on the detection of released AMP by AMP-Glo™ Assay kit (Promega, Madison). The assay is run in three steps: the enzymatic reaction in which human rec ACSS2 activates acetate with ATP and Coenzyme A as cosubstrates to acetyl-CoA thereby releasing AMP and the detection reaction of AMP by AMP Glo assay in which after the destruction of the residual ATP with AMP Glo reagent 1 produced AMP is converted to ATP that is measured in a luciferase assay system (detection reagent). The ACSS2 activity correlates with the detected luminescence signal.
The assay was performed in Perkin Elmer 384 well white Proxiplates in a total volume of 8 μl.
1 nM (fc)C-term myc tagged ACSS2 (human, recombinant, Origene, Rockville, US) and a mixture of 100 μM (fc) ATP, 100 μM (fc) Coenzyme A and 500 μM (fc) sodium acetate were incubated in a total volume of 5 μl (50 mM Hepes, 1 mM Mg-chloride, 150 mM NaCl, 1 mM DTT, 0.01% (w/v) BSA, 0.3% DMSO, pH 7.5) in the absence or presence of the test compound (10 dilution concentrations, start conc 30 μM) for 180 min at 37° C. The reaction was stopped and residual ATP destroyed by the addition of 1 μl AMP Glo reagent solution (Promega, Madison, US). After 1h incubation at room temperature 2 μl of AMP Glo detection reagent was added and the assay was incubated for 0.75 hr at room temperature. The luminescence signal was measured with an Envision multimode reader (Perkin Elmer LAS Germany GmbH) at 700 nm in luminescence mode. The full value used was the inhibitor-free reaction. The pharmacological zero value was generated by addition of ACSS2 inhibitor (Ac-CoA Synthase Inhibitor—CAS 508186-14-9-Calbiochem) in a final concentration of 5 μM. The inhibitory values (IC50) were determined using the program Assay Analyzer® from GeneData.

CHO-K1 cells = assay: Micronucleus assay (MNT) in vitro; assay type: cell-based; parameters: key: A: negative, putative negative (micronuclei detected beyond threshold of 60% cyctotoxicity); B: positive; conditions: 24 hrs treatment, 0.2 μM to 100 μM
Method: The in vitro MNT assay is performed in CHO-K1 cells due to their stable and well-characterized karyotype, high sensitivity and suitability for a high content imaging approach. They have a basal spontaneous micronucleus frequency of 3-4%.
24 hrs after plating CHO-K1 cells are treated with test compounds for 24 hrs (in duplicates; fixed concentration ranges from 0.2 μM to 100 μM in 2-fold dilution steps). After a medium change cells are incubated for 24 hrs with Cytochalasin B to block cytokinesis and are then fixed and nuclei/micronuclei visualized with a DNA stain. Images are acquired with the Molecular Devices high content imagers IXU or IXM and are analyzed with the dedicated MetaXpress software micronucleus module. Criteria for scoring of micronuclei (MN) are the following: • diameter of the MN should be less than ⅓ of the main nucleus • MN should be separated from or marginally overlap with main nucleus (=no blebs) • MN should have similar staining as the main nucleus
At least 1000 binucleated cells are evaluated per treatment replicate. Mitomycin C is used as reference stimulator of micronucleus formation. Cytotoxicity is evaluated in parallel and defined by comparing total nuclei count in compound-treated samples to neutral control samples treated with vehicle only (1% DMSO) (100% cytotoxicity means all cells are dead or lost).
A test compound is regarded as POSITIVE if generation of micronuclei and exhibition of less than 60% cytotoxicity at the same concentration can be observed.
Compounds are scored only in the soluble concentration range.
Experimental data of the compounds shown in Table 1 in the MNT assay are shown in Table 2 below and classified in the following groups: […]

ACSS2 = ACSS2 (Homo sapiens (Human), UniProt Q9NR19); assay: Cellular assay of 14C acetate incorporation into histones (IC50 ACSS2 cellular histone); assay type: cell-based; conditions: HCT-15 cells
Chain of ACSS2 (Q9NR19 whole entry): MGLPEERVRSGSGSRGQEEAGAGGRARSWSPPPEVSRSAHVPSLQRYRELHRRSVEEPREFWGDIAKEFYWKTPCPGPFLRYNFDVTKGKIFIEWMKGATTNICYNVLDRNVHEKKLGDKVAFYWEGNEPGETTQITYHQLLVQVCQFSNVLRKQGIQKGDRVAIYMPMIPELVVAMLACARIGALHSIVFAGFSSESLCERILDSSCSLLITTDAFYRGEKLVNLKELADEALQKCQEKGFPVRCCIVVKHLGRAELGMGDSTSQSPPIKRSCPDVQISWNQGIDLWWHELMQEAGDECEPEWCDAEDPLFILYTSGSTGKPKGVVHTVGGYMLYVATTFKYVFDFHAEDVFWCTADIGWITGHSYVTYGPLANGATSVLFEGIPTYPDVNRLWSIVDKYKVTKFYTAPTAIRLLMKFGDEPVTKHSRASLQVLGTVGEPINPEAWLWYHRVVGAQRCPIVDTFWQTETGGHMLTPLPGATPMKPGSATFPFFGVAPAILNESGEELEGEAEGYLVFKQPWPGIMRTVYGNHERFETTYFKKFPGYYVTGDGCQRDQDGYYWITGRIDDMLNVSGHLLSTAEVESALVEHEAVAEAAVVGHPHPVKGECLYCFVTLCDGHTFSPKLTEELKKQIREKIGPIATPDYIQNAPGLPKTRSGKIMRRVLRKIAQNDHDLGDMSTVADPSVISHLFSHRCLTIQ
Excerpt: Cellular Assay of ^14C Acetate Incorporation into Histones (IC50 ACSS2 Cellular Histone)
This protocol describes a cellular assay capable to quantify endogenous histone acetylation activity in the human HCT-15 cancer cell line following the incorporation of extracellularly administered radiolabeled ^14C acetate with a scintillation based read out on acid extracted histones.
HCT-15 cells are trypsinized, washed and suspended in DMEM culture medium supplemented with penicillin/streptomycin (100 U/mL), sodium pyruvate (1 mM), and 10% FBS
Compounds serial dilutions are prepared in 96-well V-bottom microplate from 10 mM stock solutions in DMSO. From these dilutions 0.5 μl are transferred to a fresh plate including pure DMSO as negative control. The dilutions are prepared such, that the final concentration in the assay is 1/400 of the concentration in the serial dilution. The final DMSO concentration in the assay is 0.25%.
The cell suspension is seeded at densities of 2×10^5 cells per 170 μl into individual wells of a 96 well plate each containing 0.5 μl aliquots of compound serial dilutions and are kept for 1 h in a cell incubator. To each well 30 μL of a mixture containing 0.5 mCi/mL of ^14C-acetate with full medium are added. Then, the wells are incubated for 3 hrs in the cell incubator.
Further steps of the procedure should be conducted on ice or instrumentations precooled to 4° C. Cells are sedimented in the 96-well V-bottom microplate by centrifugation (Eppendorf 5804 R) at 1200 rpm for 5 min. The supernatant is removed and the cells are washed twice with 200 μL of PBS-NaB (5 mM sodium butyrate) buffer by iterative resuspension and centrifugation. Finally, the cells are resuspended in 50 μL of TEB (PBS-NaB+0.5% Triton X-100) and left on ice for 10 minutes. After centrifugation at 2300 rpm for 10 minutes at 4° C. the supernatant is removed, the remaining pellet is suspended in 50 μL of 0.2M HCl and incubated over night at 4° C. After incubation the well plate is shaken for 2 minutes in a MTP plate shaker set to 1200 rpm and then centrifuged at 3700 rpm for 10 mins. The lysate is carefully aspirated (˜43 μL) and transferred into a white MTP plate (Greiner bio-one 65509). 90 μL of Ultima Gold XR scintillation cocktail are added and the plates are sealed with a transparent cover tape before mixing vigorously using plate shaker set to 1200 rpm. Radioactivity from ^14C incorporation in the wells is measured as CPM count in a MicroBeta Trilux luminescence counter.

Chain of human rec ACSS2 (Q9NR19 whole entry): as above

SMILES: CCn1c(C(O)(c2ccccc2F)c2ccccc2F)nc2nc(F)c(-c3nnn[nH]3)cc21 [Compound 46, [1-ethyl-5-fluoro-6-(1H-1,2,3,4-tetrazol-5-yl)-1H-imidazo[4,5-b]pyridin-2-yl]bis(2-fluorophenyl)methanol]
- pIC50 (human rec ACSS2): 7.00 to 8.00
- MNT (CHO-K1 cells): A
- pIC50 (ACSS2): 7.00 to 8.00

SMILES: CCn1c(C(O)(c2ccccc2)c2cccnn2)nc2nc(OC)c(-c3nnn[nH]3)cc21 (stereo not drawn) [Compound 27, [1-ethyl-5-methoxy-6-(1H-1,2,3,4-tetrazol-5-yl)-1H-imidazo[4,5-b]pyridin-2-yl](phenyl)(pyridazin-3-yl)methanol]
- pIC50 (human rec ACSS2): 8.00 to 9.00
- MNT (CHO-K1 cells): A
- pIC50 (ACSS2): 8.00 to 9.00

SMILES: CCn1c(C(O)(c2ccccn2)c2cccs2)nc2nc(OC)c(-c3nnn[nH]3)cc21 (racemic) [Compound 26, [1-ethyl-5-methoxy-6-(1H-1,2,3,4-tetrazol-5-yl)-1H-imidazo[4,5-b]pyridin-2-yl](pyridin-2-yl)(thiophen-2-yl)methanol]
- pIC50 (human rec ACSS2): 7.00 to 8.00
- MNT (CHO-K1 cells): A
- pIC50 (ACSS2): 8.00 to 9.00

SMILES: CCn1c(C(O)(c2ccccc2)c2nccs2)nc2nc(OC)c(-c3nnn[nH]3)cc21 (single isomer, unassigned) [Compound 33, [1-ethyl-5-methoxy-6-(1H-1,2,3,4-tetrazol-5-yl)-1H-imidazo[4,5-b]pyridin-2-yl](phenyl)(1,3-thiazol-2-yl)methanol]
- pIC50 (human rec ACSS2): 7.00 to 8.00
- MNT (CHO-K1 cells): A
- pIC50 (ACSS2): 7.00 to 8.00

SMILES: CCn1c(C(O)(c2ccccc2)c2ccc(OC(F)F)cc2F)nc2nc(OC)c(-c3nnn[nH]3)cc21 (racemic) [Compound 47, [4-(difluoromethoxy)-2-fluorophenyl][1-ethyl-5-methoxy-6-(1H-1,2,3,4-tetrazol-5-yl)-1H-imidazo[4,5-b]pyridin-2-yl]phenylmethanol]
- pIC50 (human rec ACSS2): 8.00 to 9.00
- MNT (CHO-K1 cells): A
- pIC50 (ACSS2): 8.00 to 9.00

SMILES: CCc1c(C(O)(c2ccccc2)c2ccccc2)nn2cc(F)c(-c3nnn[nH]3)cc12 [Compound 23, [3-Ethyl-6-fluoro-5-(1H-tetrazol-5-yl)-pyrazolo[1,5-a]pyridin-2-yl]-diphenyl-methanol]
- pIC50 (human rec ACSS2): 7.00 to 8.00
- MNT (CHO-K1 cells): A
- pIC50 (ACSS2): 7.00 to 8.00

SMILES: CCn1c(C(O)(c2ccccc2)c2ccccc2C)nc2nc(OC)c(-c3nnn[nH]3)cc21 (racemic) [Compound 42, [1-ethyl-5-methoxy-6-(1H-1,2,3,4-tetrazol-5-yl)-1H-imidazo[4,5-b]pyridin-2-yl](2-methylphenyl)phenylmethanol]
- pIC50 (human rec ACSS2): 8.00 to 9.00
- MNT (CHO-K1 cells): A
- pIC50 (ACSS2): 8.00 to 9.00

SMILES: CCc1c(C(O)(c2ccccc2F)c2ccccc2F)nn2cc(Cl)c(-c3nnn[nH]3)cc12 [Compound 20, [6-Chloro-3-ethyl-5-(1H-tetrazol-5-yl)-pyrazolo[1,5-a]pyridin-2-yl]-bis-(2-fluoro-phenyl)-methanol]
- pIC50 (human rec ACSS2): 8.00 to 9.00
- MNT (CHO-K1 cells): A
- pIC50 (ACSS2): 7.00 to 8.00

SMILES: CCc1c(C(O)(c2ccccc2)c2ccccn2)nc2cc(OC)c(-c3nnn[nH]3)cn12 (single isomer, unassigned) [Compound 10, [3-Ethyl-7-methoxy-6-(1H-tetrazol-5-yl)-imidazo[1,2-a]pyridin-2-yl]-phenyl-pyridin-2-yl-methanol]
- pIC50 (human rec ACSS2): 7.00 to 8.00
- MNT (CHO-K1 cells): A
- pIC50 (ACSS2): 5.00 to 7.00

SMILES: CCn1c(C(O)(c2ccsc2)c2ccsc2)nc2nc(OC)c(-c3nnn[nH]3)cc21 [Compound 29, [1-ethyl-5-methoxy-6-(1H-1,2,3,4-tetrazol-5-yl)-1H-imidazo[4,5-b]pyridin-2-yl]bis(thiophen-3-yl)methanol]
- pIC50 (human rec ACSS2): 8.00 to 9.00
- MNT (CHO-K1 cells): A
- pIC50 (ACSS2): 7.00 to 8.00

SMILES: CCn1c(C(O)(c2ccccc2)c2cnn(C)c2)nc2nc(OC)c(-c3nnn[nH]3)cc21 (racemic) [Compound 36, [1-ethyl-5-methoxy-6-(1H-1,2,3,4-tetrazol-5-yl)-1H-imidazo[4,5-b]pyridin-2-yl](1-methyl-1H-pyrazol-4-yl)phenylmethanol]
- pIC50 (human rec ACSS2): 7.00 to 8.00
- MNT (CHO-K1 cells): A
- pIC50 (ACSS2): 5.00 to 7.00

SMILES: CCn1c(C(O)(c2ccc(OC(F)F)cc2)c2ccccc2F)nc2nc(OC)c(-c3nnn[nH]3)cc21 (racemic) [Compound 52, [4-(difluoromethoxy)phenyl][1-ethyl-5-methoxy-6-(1H-1,2,3,4-tetrazol-5-yl)-1H-imidazo[4,5-b]pyridin-2-yl](2-fluorophenyl)methanol]
- pIC50 (human rec ACSS2): 8.00 to 9.00
- MNT (CHO-K1 cells): A
- pIC50 (ACSS2): 8.00 to 9.00

SMILES: CCn1c(C(O)(c2ccccc2F)c2ccccc2F)nc2ncc(-c3nnn[nH]3)cc21 [Compound 61, [1-ethyl-6-(1H-1,2,3,4-tetrazol-5-yl)-1H-imidazo[4,5-b]pyridin-2-yl]bis(2-fluorophenyl)methanol]
- pIC50 (human rec ACSS2): 7.00 to 8.00
- MNT (CHO-K1 cells): A
- pIC50 (ACSS2): 5.00 to 7.00

SMILES: CCc1c(C(O)(c2ccccc2)c2ccccn2)nc2cc(Cl)c(-c3nnn[nH]3)cn12 (single isomer, unassigned) [Compound 8, [7-chloro-3-ethyl-6-(1H-tetrazol-5-yl)imidazo[1,2-a]pyridin-2-yl]-phenyl-(2-pyridyl)methanol]
- pIC50 (human rec ACSS2): 8.00 to 9.00
- MNT (CHO-K1 cells): A
- pIC50 (ACSS2): 5.00 to 7.00

SMILES: CCn1c(C(O)(c2ccccc2)c2ccsc2)nc2nc(OC)c(-c3nnn[nH]3)cc21 (racemic) [Compound 30, [1-ethyl-5-methoxy-6-(1H-1,2,3,4-tetrazol-5-yl)-1H-imidazo[4,5-b]pyridin-2-yl](phenyl)(thiophen-3-yl)methanol]
- pIC50 (human rec ACSS2): 8.00 to 9.00
- MNT (CHO-K1 cells): A
- pIC50 (ACSS2): 7.00 to 8.00
